Values joined by “and” are separate entries in the source; they are usually repeats but may differ in a detail not shown here. Equal values may be shown once.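 Cultured in 96-well plates, cells were exposed to test compound for 48 hours across five concentrations. Abbreviation: GI50, concentration required for 50% inhibition of growth. Definition used: TGI = concentration required for complete inhibition of growth.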 Some results are limits rather than exact numbers.

Common to all, as to assay: DTP human tumour cell line panel, 48 h
The subject of experiment [1] is 786-0 renal.
The subject of experiment [2] is A498 renal.
The subject of experiment [3] is CCRF-CEM leukemia.
The test system of experiment [4] is HOP-92 NSCLC.
The test system of experiment [5] is MDA-MB-231 breast.
Experiment [6] concerns OVCAR-4 ovarian.
Experiment [7] deals with OVCAR-5 ovarian.
Experiment [8] relates to RPMI-8226 leukemia.
For experiment [9], the system named is SNB-19 CNS.
The subject of experiment [10] is U251 CNS.

`CC(=O)Nc1ncc2c(n1)-c1ccccc1OC2`: the TGI in experiment [1], in [2], in experiment [3], in experiment [4], in experiment [5] and in experiment [6] was over 100 µM each time. The concentration for total growth inhibition (TGI) in experiment [7], in experiment [8], in [9] and in experiment [10] was over 100 µM in each case.
Turning to `COc1ccc(C=O)cc1Oc1ccc(C[C@H]2c3c(cc(OC)c4c3Oc3cc5c(cc3O4)CCN(C)C5=O)CCN2C)cc1`, the TGI is 16.3 µM in experiment [1]; over 50 µM in experiment [2]; 22.1 µM in [3]; 13.7 µM in [4]; 14.6 µM in experiment [5]; 17.7 µM in experiment [6]. For the same compound, the TGI in [7] is 34.8 µM; in [8], 14.3 µM; in experiment [9] it was 30.2 µM; in experiment [10], 22.8 µM.
Turning to `COc1cc(O)c2c(c1)C(O)C(O)CC1OC1C(=O)/C=C/CC(C)OC2=O` (stereo unspecified), the TGI in [1] is 13.8 µM; in experiment [2] it was 27.3 µM; in [3] it was 8.8 µM; in experiment [4] it was 2.72 µM; in experiment [5], 16.1 µM; in [6], over 52.9 µM. Moreover, the TGI stood at 31 µM in experiment [7], 34.5 µM in experiment [8], 58.2 µM in experiment [9] and 25 µM in [10].
For the compound `COc1ccc([C@@]23CCC(=O)C[C@@H]2N(C)CC3)cc1OC`, the TGI in experiment [1], in experiment [2], in [3], in experiment [4], in experiment [5] and in [6] was over 100 µM in each case. Moreover, the TGI in experiment [7], in [8], in experiment [9] and in experiment [10] was over 100 µM in each case.
`O=C(O)CNC(=O)c1cccc2c(=O)c3ccccc3[nH]c12`: the TGI in experiment [1], in [2], in experiment [3], in [4], in [5] and in experiment [6] was over 100 µM each time. Also, the TGI in [7], in [8], in [9] and in [10] was over 100 µM in each case.
Consider `COC1=CC2(C=CC1=O)CCN=c1c(O)c3c(c(O)c12)=NC=N3` (stereo unspecified), for which the total growth inhibition concentration (TGI) in experiment [1], in experiment [2], in experiment [3], in experiment [4], in [5] and in experiment [6] was over 100 µM in each case. The TGI in [7], in [8], in experiment [9] and in experiment [10] was over 100 µM throughout.
For the compound `CSc1s[s+]c(SC)c1-c1ccccc1`, the TGI in experiment [1] is 28.1 µM; in [2], 47.3 µM; in experiment [3] it was 81.4 µM; in [4], 33.6 µM; in [5] it was 31.2 µM; in experiment [6] it was 17.9 µM. The total growth inhibition concentration (TGI) worked out at 31.2 µM in experiment [7], 56.7 µM in [8], 35.1 µM in experiment [9] and 41.1 µM in [10].
Regarding `C=CCN1C(=O)/C(=C/c2ccc(Cl)cc2)N=C1SC1OC(COC(C)=O)C(OC(C)=O)C(OC(C)=O)C1OC(C)=O` (stereo unspecified), the TGI in [1] was 12.6 µM; in experiment [2], > 100 µM and 73.7 µM; in experiment [3] it was over 100 µM; in experiment [4] it was 66.5 µM and 31.4 µM; in experiment [5], 43.6 µM and 80.9 µM; in experiment [6], 28.2 µM and 67.1 µM. In addition, the TGI in [7] is over 100 µM; in experiment [8], > 100 µM and 46.8 µM; in [9] it was 87.6 µM; in [10], 19.7 µM and > 100 µM. Besides, the GI50 in experiment [2] was 80.5 µM and 31.1 µM; in experiment [4], 22 µM and 3.62 µM; in experiment [5], 7.84 µM and 23.6 µM; in experiment [6], 4.14 µM and 16.7 µM; in [7] it was > 66.9 µM and 32.7 µM; in experiment [8] it was 11.2 µM and 5.19 µM. The GI50 in experiment [10] was 5.23 µM and 30.1 µM.
In the case of `Cc1cc(S(=O)(=O)NC(=NCC(=O)NN)NN)c(S)cc1Cl`, the TGI in experiment [1], in experiment [2], in experiment [3], in experiment [4], in experiment [5] and in [6] was over 10 µM each time. The TGI in experiment [7], in experiment [8], in [9] and in experiment [10] was over 10 µM throughout.
With `CN1C(=O)[C@@]2(C=CC3(CC2)OCCO3)c2ccccc21`, the TGI in [1], in experiment [2], in experiment [3], in experiment [4], in experiment [5] and in experiment [6] was over 50 µM throughout. Also, the TGI in experiment [7], in experiment [8], in [9] and in experiment [10] was over 50 µM each time.
As for `CNC(=O)OCC1=C(COC(=O)NC)CN(c2ccccc2)C1`, the TGI in [1], in experiment [2], in [3], in experiment [4], in [5] and in experiment [6] was over 100 µM each time. Besides, the TGI in experiment [7], in experiment [8], in [9] and in experiment [10] was over 100 µM throughout.
Take `O=C(O)c1ccccc1-c1ccccc1C(=O)c1ccccc1`: the TGI in [1], in [2], in experiment [3], in experiment [4], in experiment [5] and in [6] was over 100 µM throughout. Moreover, the TGI in [7], in [8], in experiment [9] and in experiment [10] was over 100 µM in each case.
For the compound `CSc1nc(Br)nc2c1ncn2C1CC(Oc2ccc(C)cc2)C(COc2ccc(C)cc2)O1` (stereo unspecified), the TGI in [1], in experiment [2], in experiment [3], in experiment [4], in experiment [5] and in [6] was over 100 µM throughout. Further, the TGI in experiment [7] was over 100 µM; in experiment [8], over 100 µM; in [9], 73.8 µM; in [10], over 100 µM.
For `COC(=O)c1ccc(OCc2ccc3nc(-c4ccccc4)c(Cl)nc3c2)cc1`, the TGI in experiment [1] was 48.9 µM; in [2] it was over 100 µM; in experiment [3] it was over 100 µM; in [4], over 100 µM; in [5], 60.2 µM; in [6], over 100 µM. The TGI in experiment [7], in experiment [8], in experiment [9] and in experiment [10] was over 100 µM each time.
Consider `CCC1(O)CN(CCOC)[C@H]2C[C@@H]1C(=O)c1[nH]c3ccccc3c12` (stereo partly specified), for which the TGI in experiment [1], in experiment [2], in [3], in experiment [4], in [5] and in experiment [6] was over 100 µM in each case. In addition, the TGI in [7], in [8], in experiment [9] and in [10] was over 100 µM throughout.
Regarding `CN1C/C(=C\c2ccccc2[N+](=O)[O-])C(=O)/C(=C/c2ccccc2[N+](=O)[O-])C1`, the TGI in experiment [1] is 1.01 µM and 0.467 µM; in experiment [2], 4.45 µM and 4.72 µM; in experiment [3], 0.542 µM and 0.568 µM; in [4] it was 2.75 µM and 2.61 µM; in experiment [5] it was 0.911 µM; in [6] it was 2.27 µM and 0.94 µM. Besides, the total growth inhibition concentration (TGI) in [7] is 10.3 µM and 3.87 µM; in [9] it was 16.6 µM and 19.2 µM; in experiment [10] it was 3.83 µM and 3.86 µM. The GI50 in experiment [3] is 0.226 µM and 0.0611 µM; in experiment [5], 0.284 µM; in experiment [6], 0.708 µM and 0.298 µM; in experiment [7], 3.27 µM and 1.05 µM; in experiment [8], 0.592 µM and 0.116 µM.
Regarding `COc1cc(C2S/C(=C/c3ccccc3)C(=O)N2c2ccc(Cl)cc2)cc(OC)c1OC` (stereo unspecified), the TGI in [1] is over 100 µM; in experiment [2], over 100 µM; in experiment [3] it was over 100 µM; in experiment [4] it was over 52 µM; in experiment [5] it was over 96.6 µM; in experiment [6], over 100 µM. Besides, the TGI is over 100 µM in experiment [7], over 100 µM in experiment [8], over 100 µM in experiment [9] and over 94.1 µM in experiment [10].
As to `CCOP(=O)(OCC)C(F)(F)CC1CCCCC1`, the TGI in experiment [1], in experiment [2], in experiment [3], in experiment [4], in experiment [5] and in [6] was over 10 µM in each case. Moreover, the TGI in experiment [7], in experiment [8], in experiment [9] and in [10] was over 10 µM in each case.
As for `C=CCOn1c(C=C)nc2c(C)cccc21`, the TGI turned out to be 5.83 µM in experiment [1]; 17.9 µM in [2]; 3.68 µM in experiment [3]; 34.4 µM in [4]; 14.8 µM in [5]; 24 µM in experiment [6]. Moreover, the TGI in [7] is 23.3 µM; in [8] it was 17.1 µM; in experiment [9], 21.5 µM; in experiment [10] it was 4.84 µM.
For `CSC1(SC)CCCCCCCCCCC1`, the TGI in experiment [1] was over 100 µM; in experiment [2] it was over 100 µM; in experiment [3], 48.6 µM; in experiment [4] it was 87.5 µM; in [5], over 100 µM; in experiment [6] it was over 100 µM. Moreover, the TGI in [7], in experiment [8], in experiment [9] and in experiment [10] was over 100 µM each time.
As to `O=C1O/C(=C\c2ccc(O)cc2)C(c2ccc(O)c(Cl)c2)=C1Br`, the concentration for total growth inhibition (TGI) turned out to be 31.6 µM in [1]; 34.6 µM in [2]; 32.8 µM in experiment [3]; 32.1 µM in [4]; 59.9 µM in experiment [5]; 38.4 µM in experiment [6]. For the same compound, the TGI in [7] came out at 35.4 µM; in experiment [8] it was 30.7 µM; in experiment [9], 62.7 µM; in experiment [10], 34.5 µM.
Consider `O=C(CCCN1CCc2[nH]c3cc(F)ccc3c2C1)c1ccc(F)cc1`, for which the TGI amounted to 26.6 µM in experiment [1]; 24.4 µM in experiment [2]; 30.9 µM in experiment [3]; 8.59 µM in experiment [4]; 25.5 µM in experiment [5]; 26.9 µM in [6]. Besides, the TGI was 24.7 µM in experiment [7], 27.2 µM in experiment [8], over 100 µM in experiment [9] and 29.8 µM in experiment [10].
In the case of `O=C(O)c1ccc(Nc2cnc3ccc(C(F)(F)F)cc3n2)cc1`, the TGI in experiment [1] is over 100 µM; in experiment [2] it was 42.9 µM; in experiment [3] it was 43.1 µM; in [4], 38.9 µM; in [5], 36.9 µM; in experiment [6], 40.7 µM. The TGI was over 100 µM in experiment [7], 48 µM in [8], 33.7 µM in experiment [9] and 59.2 µM in [10].
With `N#Cc1nnc2c3c(-c4ccc(Cl)cc4)c(C#N)c(=O)[nH]c3nn2c1N`, the TGI in [1] was 18.2 µM; in experiment [2], 10.9 µM; in experiment [3], over 100 µM; in [4], 27.9 µM; in experiment [5], 43.5 µM; in experiment [6], 51 µM. For the same compound, the TGI in experiment [7] was 65.4 µM; in [8], 51.1 µM; in experiment [9] it was 19.5 µM; in [10], 10.7 µM.
As for `CC1=CC(c2ccccc2)n2c(nc3cc4ccccc4cc32)N1` (stereo unspecified), the TGI in experiment [1], in experiment [2], in [3], in experiment [4], in [5] and in experiment [6] was over 100 µM each time. Further, the total growth inhibition concentration (TGI) in [7], in [8], in experiment [9] and in [10] was over 100 µM throughout.
For `CC(C)[Si]1(C(C)C)OCC2OC(n3cnc4c(N)ncnc43)C(N)C2O[Si](C(C)C)(C(C)C)O1` (stereo unspecified), the TGI in [1] was 28.3 µM; in experiment [2] it was 45.5 µM; in experiment [3] it was over 71.6 µM; in experiment [4] it was 33 µM; in experiment [5], 33.1 µM; in [6] it was over 100 µM. For the same compound, the TGI came out at 67.6 µM in experiment [7], 7.72 µM in [8], 97.5 µM in [9] and 35.8 µM in experiment [10].

The values are drawn from PubChem BioAssay (NCI).
